Test results: patent US9034857B2 (Health Research, Inc., priority 2010, dated 2015)
“Also recorded” adds a separate entry of the source.

These compounds were tested on intracellular O2- in stationary phase budding yeast cells (assay: High throughput flow cytometry DHE screen for reduction of superoxide in stationary phase budding yeast). Details: not given.
Type: cell-based, S. cerevisiae

Structure (SMILES)	dose dependency in re-screening (reduction of superoxide, DHE)	decrease in superoxide signals (control compound)
O=c1cccc2[nH]c3ccccc3nc1-2 [MLS000737174, 5H-phenazin-1-one]	identified by dose dependency; also recorded: exhibited dose dependency	
CC(C)(C)n1nc(-c2ccc(Cl)cc2)c2c(N)ncnc21 [MLS000326622, 1-tert-butyl-3-(4-chlorophenyl)pyrazolo[3,4-d]pyrimidin-4-amine]	identified by dose dependency; also recorded: exhibited dose dependency	
Nc1nc[nH]n1 [3-aminotriazol, reference compound]		more robust and reproducible decrease in superoxide signals
C=C1[C@@H](O)[C@@H]2O[C@]3(CC[C@H](/C=C/[C@@H](C)[C@@H]4CC(C)=C[C@@]5(O[C@H](C[C@@](C)(O)C(=O)O)CC[C@H]5O)O4)O3)CC[C@H]2O[C@@H]1[C@@H](O)C[C@H](C)[C@H]1O[C@@]2(CCCCO2)CC[C@H]1C [MLS002320508, (2R)-3-[(4S,10S)-4-[(E)-4-[(2S,2′R,4aS,6R,8aR)-4-hydroxy-2-[1-hydroxy-3-[(10S)-9-methyl-5,11-dioxaspiro[5.5]undecan-10-yl]butyl]-3-methylidenespiro[4a,7,8,8a-tetrahydro-4H-pyran[3,2-b]pyran-6,5′-oxolane]-2′-yl]but-3-en-2-yl]-7-hydroxy-2-methyl-5,11-dioxaspiro[5.5]undec-1-en-10-yl]-2-hydroxy-2-methylpropanoic acid]	identified by dose dependency; also recorded: exhibited dose dependency	
CNc1ccc2nc3ccccc3[n+](C)c2c1.[O-][Cl+3]([O-])([O-])[O-] [MLS001164912, N,10-dimethylphenazin-10-ium-2-amine perchlorate]	identified by dose dependency; also recorded: exhibited dose dependency	
Nc1cc2nc3ccccc3nc2cc1N [MLS001044416, phenazine-2,3-diamine]	identified by dose dependency; also recorded: exhibited dose dependency	

Same assay, conditions: dose response assays from 0.004 uM to 30 uM; 7 day incubation, 7% glucose

Structure (SMILES)	dose dependency in re-screening (reduction of superoxide, DHE)
COc1ccc2c3c(cccc13)N(C)N=C2C [MLS000554700, 6-Methoxy-1,3-dimethyl-1H-benzo[de]cinnoline]	identified by dose dependency; also recorded: exhibited dose dependency
CSc1nnc(-c2ccc([N+](=O)[O-])cc2)o1 [MLS000855890, 2-methylsulfanyl-5-(4-nitrophenyl)-1,3,4-oxadiazole]	identified by dose dependency; also recorded: exhibited dose dependency
CC(=O)Nc1ccc2nc3ccccc3nc2c1 [MLS001044354, N-phenazin-2-ylacetamide]	identified by dose dependency; also recorded: exhibited dose dependency
C=CCSc1nnc(-c2ccc([N+](=O)[O-])cc2)o1 [MLS000662516, 2-(4-nitrophenyl)-5-prop-2-enylsulfanyl-1,3,4-oxadiazole]	identified by dose dependency; also recorded: exhibited dose dependency
COc1ccc2c(c1)c1nnc(SC)nc1n2C [MLS000033501, 8-methoxy-5-methyl-3-methylsulfanyl-[1,2,4]triazino[5,6-b]indole]	identified by dose dependency; also recorded: exhibited dose dependency
COC(=O)c1cccc2nc3c(C(C)O)cccc3nc12 (stereo not drawn) [MLS000863638, methyl 6-(1-hydroxyethyl)phenazine-1-carboxylate]	identified by dose dependency; also recorded: exhibited dose dependency
COc1cccc2nc3cc(C)c(C)cc3nc12 [MLS000756830, 1-methoxy-7,8-dimethylphenazine]	identified by dose dependency; also recorded: exhibited dose dependency
CC(C)OC(=O)c1ccc2nc3ccccc3nc2c1 [MLS001173415, propan-2-yl phenazine-2-carboxylate]	identified by dose dependency; also recorded: exhibited dose dependency
CC(=NNc1ncnc2sc(C)c(C)c12)c1ccccn1 [MLS001176565, 5,6-dimethyl-N-(1-pyridin-2-ylethylideneamino)thieno[2,3-d]pyrimidin-4-amine]	identified by dose dependency; also recorded: exhibited dose dependency
C#CCSc1nnc(-c2ccc([N+](=O)[O-])cc2)o1 [MLS000663774, 2-(4-nitrophenyl)-5-prop-2-ynylsulfanyl-1,3,4-oxadiazole]	identified by dose dependency; also recorded: exhibited dose dependency
COc1ccc2nc3ccccc3nc2c1 [MLS000768124, 2-methoxyphenazine]	identified by dose dependency; also recorded: exhibited dose dependency
C[C@]12CCC3C(CC[C@H]4C[C@H](O)CC[C@]34C)C1C[C@@H](CCCCl)[C@@H]2O (stereo partly drawn) [MLS002554453, (3R,5S,10S,13S,16R,17S)-16-(3-chloropropyl)-10,13-dimethyl-2,3,4,5,6,7,8,9,11,12,14,15,16,17-tetradecahydro-1H-cyclopenta[a]phenanthrene-3,17-diol]	identified by dose dependency; also recorded: exhibited dose dependency
O=C(Nc1ccc2nc3ccccc3nc2c1)c1ccccc1 [MLS000418506, N-phenazin-2-ylbenzamide]	identified by dose dependency; also recorded: exhibited dose dependency
CCC(Nc1ccccc1O)=C1C(=O)CC(c2ccccc2)CC1=O (stereo not drawn) [MLS000779260, 2-[1-(2-hydroxyanilino)propylidene]-5-phenylcyclohexane-1,3-dione]	identified by dose dependency; also recorded: exhibited dose dependency
COc1ccc2nc3ccccc3[n+]([O-])c2c1 [MLS002638803, 2-methoxy-10-oxidophenazin-10-ium]	identified by dose dependency; also recorded: exhibited dose dependency
CC(C)(C)Nc1ncnc2c1cnn2-c1ccccc1 [MLS000100785, N-tert-butyl-1-phenylpyrazolo[3,4-d]pyrimidin-4-amine]	identified by dose dependency; also recorded: exhibited dose dependency
CNC(=O)c1cccc2nc3ccccc3nc12 [MLS001044346, N-methylphenazine-1-carboxamide]	identified by dose dependency; also recorded: exhibited dose dependency
COc1ccc2nc3ccccc3nc2c1N [MLS001044341, 2-methoxyphenazin-1-amine]	identified by dose dependency; also recorded: exhibited dose dependency
CCN(CC)C(=O)c1ccc2nc3ccccc3nc2c1 [MLS000595212, N,N-diethylphenazine-2-carboxamide]	identified by dose dependency; also recorded: exhibited dose dependency
FC(F)(F)c1nc2cc3nc4ccccc4nc3cc2[nH]1 [MLS001049309, 2-(trifluoromethyl)-1H-imidazo[4,5-b]phenazine]	identified by dose dependency; also recorded: exhibited dose dependency
O=c1ccc2[n+]([O-])c3ccccc3n(O)c-2c1 [MLS001208198, 10-hydroxy-5-oxidophenazin-5-ium-2-one]	identified by dose dependency; also recorded: exhibited dose dependency
